Test results: patent publication US9968579B2, “ATRA for modulating Pin1 activity and stability” (Beth Israel Deaconess Medical Center, Inc., priority 2014, dated 2018)

Key:
Pin1 PPIase domain = molecular target: T1, Pin1 PPIase domain (Homo sapiens, UniProt Q13526); assay: FP-HTS / FP assay, competition with pTide probe for Pin1 binding; conditions: for Pin1 binding among retinoids tested: FIG. 4F; for interaction with Pin1 in FP assay: 0.5 h or 24 h incubation with Pin1
T1 construct: Pin1 PPIase domain was used instead of its full-length protein
From the text: A FP-HTS screening for small molecule compounds that may compete with pTide for binding to dephosphorylated and thus activated Pin1 was developed. Pin1 PPIase domain was used instead of its full-length protein to ensure the identification of compounds that selectively target the catalytic site of monomeric Pin1. The HTS probe pTide was conjugated with FITC or TAMRA and assay conditions optimized to ensure that the probe only binds to the catalytic active site with certain essential residues, such as K63 and R69 (PDB: 2Q5A).
(§1) As observed in FIGS. 4B and 4C, 13cRA and its pairing compound ATRA include a carboxylic acid and a hydrophobic six-membered aromatic ring.
To examine whether the carboxylic acid in ATRA serves as an alternative of phosphate group that binds to Pin1, several structurally similar retinoids with substituted carboxylic or aromatic groups, as well as the new generation of retinoid drugs including Fenretinide and Bexarotene were tested for Pin1 binding.

cyclin D1 promoter = assay: Cyclin D1 promoter activation by Pin1; assay type: cell-based; conditions: dose-dependent
From the text: FIG. 6 illustrates study results 600 in which ATRA may have anticancer activity in other cancer types. Breast cancer was used as model due to the substantial oncogenic role of Pin1 in vitro and in vivo. The first step was to test whether ATRA may reverse the oncogenic phenotypes induced by Pin1 overexpression, including induction of centrosome amplification, activation of the cyclin D1 promoter, and enhancement of foci formation.

[1] = tested on: MDA-MB-231 cells expressing Q33K or E100D Pin1 mutant; assay: Xenograft of MDA-MB-231 cells expressing Q33K or E100D Pin1 mutant; set-up: species or system nude mice; conditions: mouse, in vivo
Method: (H-J) ATRA inhibited tumor growth of MDA-MB-231 cells in mice, even after over-expression of monomeric Q33K or E100D Pin1 mutant. Nude mice were injected with 2×10^6 MDA-MB-231 cells and treated with ATRA pellets at indicated dosages. Tumors were harvested 7 weeks later. Quantitative curve of tumor volumes developed by Q33K (I) or E100D (J)-expressing MDA-MB-231 in the nude mice (n=3).
It was examined whether ATRA is suitable for treating tumors driven by cancer-derived monomeric Pin1 mutants given that it induces degradation of monomeric Pin1. It is stably expressed WT, Q33K or E100D Flag-Pin1 in MDA-MB-231 cells, and then treated them with ATRA. […] Collectively, ATRA has potent anti-tumor activity against breast cancer driven by WT Pin1 or its cancer-derived monomeric mutants via ablating Pin1.

[2] = tested on: Pin1 and substrate oncogenes and tumor suppressors; assay: Protein levels of Pin1 and its substrates in breast cell lines; assay type: cell-based, human
From the text: (I, J) Either ATRA (I) or inducible Pin1 KD (J) shared the same ability to reduce protein levels of Pin1 and its substrate oncogenes including cyclin D1, HER2, ERα, Akt, NFkB/p65, c-Jun and PKM2 as well as to increase protein levels of Pin1 substrate tumor suppressors, Smad and SMRT, in breast cancer MDA-MB-231, SKBR3 and T47D cells, with ATRA having little effects on normal MCF10A cells. TNBC, triple negative breast cancer.
To further support that ATRA targets Pin1 in breast cancer, it was examined whether ATRA would affect protein levels of a selected set of oncogenes and tumor suppressors, whose protein stability is shown to be regulated by Pin1 in breast cancer. […] To further support that these effects of ATRA are due to Pin1 degradation, it was stably introduced tetracycline-inducible Pin1 KD into these cells. Inducible Pin1 KO produced the same effects on the oncogenes and tumor suppressors, as did ATRA (FIG. 6J). Taken together, ATRA selectively ablated activated Pin1 to inhibit many cancer-driving pathways simultaneously.

MDA-MB-231 cells = assay: MDA-MB-231 xenograft in nude mice; assay type: in vivo, female nude mice; conditions: intraperitoneally 3 times a week for 8 weeks
Method: (A, B) ATRA inhibited tumor growth of MDA-MB-231 cells in mice. Female nude mice were flank-inoculated with 2×10^6 MDA-MB-231 cells and, 1 week later, implanted with 5 or 10 mg 21 day slow-releasing ATRA pellets. Tumor sizes were measured weekly and tumor tissues were collected from the mice after 7 weeks (A). Curves of tumor volume were plotted after calculation with formula of L×W^2×0.52 (B) (n=3).
FIG. 7 illustrates study results 700 in which the slow-releasing ATRA inhibits human triple negative breast cancer tumor growth in mice. In the pilot experiments, female nude mice were subcutaneously injected with MDA-MB-231 cells into the flank, followed by administering ATRA or vehicle intraperitoneally 3 times a week for 8 weeks. […] This ATRA's modest anti-tumor activity could be due to its short half-life of less than 1 h in humans. Thus, slow-releasing ATRA pills to maintain its constant drug level in mice was used. Mice were again subcutaneously injected with MDA-MB-231 cells into the flank and implanted 1 week later with slow-releasing ATRA or placebo pills for 8 weeks. […] Tumor samples were then collected at the end and immunoblotted with antibodies against Pin1 and its target cyclin D1.

Pin1 [3] = molecular target: T2, Pin1 (Homo sapiens, UniProt Q13526); assay: In vitro PPIase assay; conditions: dose-dependent
AU565 cells = assay: ATRA sensitivity of AU565 cells in combination with SIRT1 inhibitors; assay type: cell-based, human; conditions: ATRA-resistant AU565 cells
From the text: Moreover, SIRT1 KD cells were more sensitive to growth inhibition, and Pin1 degradation induced by ATRA. These findings support the notion that ATRA selectively targets the activated Pin1 monomer.

NB4 cells = assay: Cell growth of NB4 cells; assay type: cell-based, human; conditions: combination with 1.5 μM ATRA; superior to high dose ATRA
From the text: (K) Potentiated effects of ATRA with SIRT1 inhibitors, NAM or Splito, on cell growth of NB4.
Next, in a consideration to test the role of activated Pin1 monomer in APL, the anti-proliferative effect of ATRA in the presence of the SIRT1 inhibitors, NAM or Splito, to deplete the monomeric Pin1 reservoir was examined.

[4] = tested on: PML-RARα and Pin1 in NB4 cells; assay: PML-RARα and Pin1 protein levels in NB4 cells; assay type: cell-based, human
Pin1 acetylation = Pin1 acetylation in cells (Flag IP, acetyl-lysine immunoblot); assay type: cell-based
From the text: FIG. 1 depicts HTS results for glucose starvation induced Pin1 deacetylation in cells 100. In order to perform glucose starvation induced Pin1 deacetylation in cells, cells were transfected with Flag-Pin1 and subjected to various stresses, followed by Flag IP before with immunoblotting acetyl-lysine (AcK) or Flag antibody. Glu-, glucose starvation; HS, heat shock; UV, UV radiation. […] Overexpression of p300-HA increased Pin1 acetylation in cells. Various histone acetyl transferases were co-transfected with Flag-Pin1 into cells, followed by assaying acetylated Pin1. p300 inhibitors, Garcinol (Gar) and Anacardic acid (AnAc), reversed p300-increased Pin1 acetylation.
To corroborate this notion, 2-deoxyglucose (2-DG), a glucose analog, was used to mimic glucose starvation (Wick et al., 1955). […] Protein acetylation may be catalytically modulated by a particular pair of histone acetyl transferase (HAT) and deacetylase (HDAC) (Yang and Seto, 2007). To identify the HAT and HDAC that modulates Pin1 acetylation, Flag-tagged Pin1 was expressed with several HATs including p300, CBP or GCN5 in cells, followed by coimmunoprecipitation (Co-IP) with anti-Flag antibody and immunoblotting with anti-acetyl lysine antibody.

[5] = tested on: APL cells isolated from hCG-PML-RARα transgenic mice
breast cancer cells = assay: Effect of pan-RARs inhibitor/activator on ATRA-induced Pin1 degradation and growth inhibition; assay type: cell-based, human
From the text: To examine whether the inhibitory effects of ATRA on breast cancer cell growth were related to RAR activation, Ro-415253 and AC-93253 were used. […] Thus, ATRA-mediated growth inhibition is likely via Pin1 degradation in breast cancer cells, as in APL cells.

cells = conditions: cited from earlier work
Pin1 [6] = molecular target: T2, Pin1; conditions: read-out: Kd (affinity for Pin1); cited from earlier work
Pin1 S71E mutant = Pin1 S71E mutant (Homo sapiens, UniProt Q13526, S71E); assay: Binding to phosphorylation-mimicking Pin1 S71E mutant
From the text: as §1
The levels of S71 phosphorylation in different cell lines were tightly correlated with ATRA's sensitivity. […] It has been previously shown that phosphorylation on S71 forms salt bridges with K63 and R69, which are the same two residues that coordinated for the binding to the carboxylic acid group of ATRA (FIG. 6H). Thus S71 phosphorylation by DAPK1 may regulate ATRA's sensitivity of cancer cells.

C=C(c1ccc(C(=O)O)cc1)c1cc2c(cc1C)C(C)(C)CCC2(C)C [Bexarotene]
Pin1 binding among retinoids tested (Pin1 PPIase domain): only marginal Pin1 interaction

CC1=C(/C=C/C(C)=C/C=C/C(C)=C/C(=O)O)C(C)(C)CCC1 [ATRA, all-trans-retinoic acid]
interaction with Pin1 in FP assay (Pin1 PPIase domain): interacted with Pin1 in a dose-dependent manner | Pin1 binding among retinoids tested (Pin1 PPIase domain): most potent | Pin1 binding potency, ATRA versus 13cRA (Pin1 PPIase domain; after 0.5 h Pin1 incubation): more potent than 13cRA | Pin1 binding potency, ATRA versus 13cRA (Pin1 PPIase domain; after 24 h Pin1 incubation): the same potency | inhibition of Pin1 activation of the cyclin D1 promoter (cyclin D1 promoter): fully inhibited | Pin1 mutants and cyclin D1 in tumors [1]: dose-dependently reduced both Q33K and E100D Pin1 mutants and cyclin D1 in tumors | inhibition of Q33K or E100D Pin1 mutant-promoted xenograft tumor growth [1]: dose-dependently and effectively inhibited | protein levels of Pin1 and oncogenic substrates (cyclin D1, HER2, ERα, Akt, NFkB/p65, c-Jun, PKM2) ([2]; T47D, SKBR3 or MDA-MB-231): dose-dependent protein reduction | protein levels of tumor suppressor substrates Smad2/3 or SMRT ([2]; T47D, SKBR3 or MDA-MB-231): protein induction | changes in Pin1, oncogenes or tumor suppressors ([2]; normal MCF10A cells): no appreciable changes | tumor size (MDA-MB-231 cells): slightly smaller tumors than control mice

CC(=O)OC/C=C(C)/C=C/C=C(C)/C=C/C1=C(C)CCCC1(C)C [retinyl acetate]
Pin1 binding among retinoids tested (Pin1 PPIase domain): completely inactive

CC1=C(/C=C/C(C)=C/C=C/C(C)=C\C(=O)O)C(C)(C)CCC1 [13cRA, 13-cis-retinoic acid]
interaction with Pin1 in FP assay (Pin1 PPIase domain): interacted with Pin1 in a dose-dependent manner | rank as Pin1 inhibitor hit by Z score in FP-HTS (Pin1 PPIase domain; 8200 compound chemical libraries): No. 1 hit | inhibition of Pin1 PPIase activity (Pin1 [3]): completely inhibited

NC(=O)c1cccnc1 [NAM]
increase of ATRA sensitivity (AU565 cells): 2 orders of magnitude | effect on anticancer effects of low dose ATRA (NB4 cells): greatly potentiated

CCOC(=O)CN1C(=O)c2ccc3c4c(ccc(c24)C1=O)C(=O)N(CC(=O)OCC)C3=O [PiB]
PML-RARα degradation [4]: induced PML-RARα degradation in a dose-dependent manner | Pin1 degradation [4]: inhibited Pin1 without degrading it

CC1=C(/C=C/C(C)=C/C=C/C(C)=C/C=O)C(C)(C)CCC1 [retinal]
Pin1 binding among retinoids tested (Pin1 PPIase domain): completely inactive

CC1=C(/C=C/C(C)=C/C=C/C(C)=C/CO)C(C)(C)CCC1 [retinol]
Pin1 binding among retinoids tested (Pin1 PPIase domain): completely inactive

CCCCCCCCCCCCCCCc1cccc(O)c1C(=O)O [Anacardic acid]
effect on p300-increased Pin1 acetylation (Pin1 acetylation; p300 over-expressed): reversed

CC1=C(/C=C/C(C)=C/C=C/C(C)=C/C(=O)Nc2ccc(O)cc2)C(C)(C)CCC1 [Fenretinide]
Pin1 binding among retinoids tested (Pin1 PPIase domain): only marginal Pin1 interaction

O=CC[C@@H](O)[C@H](O)[C@H](O)CO [2-DG, 2-deoxyglucose]
Pin1 acetylation (Pin1 acetylation; mimic of glucose starvation): reduction in Pin1 acetylation in a time- or dose-dependent manner

O=C(O[C@@H]1Cc2c(O)cc(O)cc2O[C@@H]1c1cc(O)c(O)c(O)c1)c1cc(O)c(O)c(O)c1 [EGCG]
PML-RARα degradation [4]: induced PML-RARα degradation in a dose-dependent manner | Pin1 degradation [4]: inhibited Pin1 without degrading it | PML-RARα in the bone marrow ([5]; after 20 days): dramatically reduced | condition of treated mice ([5]; mouse, in vivo): rather sick | potency in reducing PML-RARα and spleen size compared with ATRA ([5]; mouse, in vivo): less potent | spleen weights ([5]; versus enlarged spleens in placebo group): remained nearly at basal levels

O=C1CCc2c(ccc3ccccc23)O1 [Splito]
effect on ATRA sensitivity (AU565 cells): increase ATRA sensitivity | effect on anticancer effects of low dose ATRA (NB4 cells): greatly potentiated

CCCCCCCOc1cc2c(cc1/C(C)=C/c1ccc(C(=O)O)cc1)C(C)(C)CCS2(=O)=O [Ro-415253]
effect on Pin1 degradation or cell growth inhibition induced by ATRA (breast cancer cells): neither the pan-RARs inhibitor nor the pan-RARs activator had any obvious effects

O=C(O)c1ccccc1O [salicylic acid]
interaction with Pin1 in FP assay (Pin1 PPIase domain): negative control

Bth-d-phos.Thr-Pip-Nal [pTide]
ability to enter cells (cells): cannot enter cells | Kd (Pin1 [6]): 1.2 nM | binding to Pin1 S71E mutant (Pin1 S71E mutant): unable to bind
